The values below come from patent US12018021B2 (UCB Biopharma SRL, priority 2018, dated 2024).

Some results are limits rather than exact numbers.

For the assay, the target named is IgE-Tb / sFcεRIα-Y131A-AF488 (Homo sapiens, UniProt P01854, N146Q/N252Q). Put plainly: IgE-Tb / sFcεRIα-Y131A-AF488 FRET assay (protocol for examples 234 to 501). Type of assay: binding. As to conditions: examples 234 to 501: compound with IgE-Tb 30 minutes before sFcεRIα-Y131A-AF488, incubated 18 hours at room temperature; read-out: Y131A FRET IC50 range. In short, it runs like this: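 Read-out is the 520/490 nm emission ratio (337 nm excitation) after 18 h at room temperature, background subtracted, fitted four-parameter for IC50. Final reagents: 5 nM IgE-Tb, preincubated 30 min with compound (top typically 10 μM, 2% DMSO, 3-fold 10-point), plus 25 nM sFcεRIα-Y131A-AF488.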
IgE-Tb / sFcεRIα-Y131A-AF488, sequence (P01854 whole entry N146Q/N252Q): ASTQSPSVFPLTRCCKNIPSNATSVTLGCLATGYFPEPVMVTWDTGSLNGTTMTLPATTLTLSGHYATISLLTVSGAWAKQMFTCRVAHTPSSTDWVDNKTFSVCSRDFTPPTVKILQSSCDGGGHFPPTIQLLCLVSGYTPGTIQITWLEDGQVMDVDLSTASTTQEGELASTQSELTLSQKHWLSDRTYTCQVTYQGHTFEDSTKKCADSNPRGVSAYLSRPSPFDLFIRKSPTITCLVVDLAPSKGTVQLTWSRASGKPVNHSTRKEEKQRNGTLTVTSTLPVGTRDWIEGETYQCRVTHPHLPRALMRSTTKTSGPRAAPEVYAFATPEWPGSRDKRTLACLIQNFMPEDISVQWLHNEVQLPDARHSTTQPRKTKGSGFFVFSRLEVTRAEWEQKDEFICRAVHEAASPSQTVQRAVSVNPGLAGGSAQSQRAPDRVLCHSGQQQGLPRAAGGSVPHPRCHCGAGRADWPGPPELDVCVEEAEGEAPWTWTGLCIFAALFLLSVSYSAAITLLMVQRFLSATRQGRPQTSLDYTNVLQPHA
In the case of `Cn1nc(C(F)F)cc1Nc1nncn1[C@H]1CCc2sc(NC(=O)[C@H]3C[C@H](F)C3)c(C(=O)N[C@@H]3CC34CC4)c2C1` (single isomer, unassigned) [Example 469], the IC50 was < 1000 nM.

As for `Cn1nc(C(F)F)cc1Nc1nncn1[C@H]1CCc2sc(NC(=O)[C@H]3C[C@H](F)C3)c(C(=O)N[C@H]3CC34CC4)c2C1` (single isomer, unassigned) [Example 470], the IC50 is < 1000 nM.

Regarding `Cn1nc(C(F)F)cc1Nc1nncn1[C@H]1CCc2sc(NC(=O)[C@H]3C[C@H](F)C3)c(C(=O)NC[C@H]3C[C@H](F)C3)c2C1` (single isomer, unassigned) [Example 474], the IC50 is < 1000 nM.

In the case of `Cn1nc(C(F)F)cc1Nc1nncn1[C@H]1CCc2sc(NC(=O)[C@H]3C[C@@H](F)C3)c(C(=O)NC[C@H]3C[C@H](F)C3)c2C1` (single isomer, unassigned) [Example 475], the IC50 was < 1000 nM.

`Cn1nc(C(F)F)cc1Nc1nncn1[C@H]1CCc2sc(NC(=O)[C@H]3C[C@H](F)C3)c(C(=O)N[C@H]3C[C@H](F)C3)c2C1` (single isomer, unassigned) [Example 476]: the IC50 is < 1000 nM.

With `Cn1nc(C(F)F)cc1Nc1nncn1[C@H]1CCc2sc(NC(=O)[C@H]3C[C@@H](F)C3)c(C(=O)N[C@H]3C[C@H](F)C3)c2C1` (single isomer, unassigned) [Example 477], the IC50 is < 1000 nM.

Consider `Cn1nc(OC(F)F)cc1Nc1nncn1[C@H]1CCc2sc(NC(=O)[C@H]3C[C@H](F)C3)c(C(=O)N[C@@H]3CC34CC4)c2C1` (single isomer, unassigned) [Example 484], for which the concentration for half-maximal inhibition (IC50) is < 1000 nM.

Regarding `Cn1nc(OC(F)F)cc1Nc1nncn1[C@H]1CCc2sc(NC(=O)[C@H]3C[C@H](F)C3)c(C(=O)N[C@H]3CC34CC4)c2C1` (single isomer, unassigned) [Example 485], the concentration for half-maximal inhibition (IC50) was < 1000 nM.

As to `Cn1nc(OC(F)F)cc1Nc1nncn1[C@H]1CCc2sc(NC(=O)[C@H]3C[C@H](F)C3)c(C(=O)NC[C@H]3CC3(F)F)c2C1` (single isomer, unassigned) [Example 488], the IC50 is < 1000 nM.

Regarding `Cn1nc(C(F)F)cc1Nc1nncn1[C@H]1CCc2sc(NC(=O)C3CC3)c(C(=O)N[C@H]3CC34CC4)c2C1` (single isomer, unassigned) [Example 495], the half-inhibitory concentration (IC50) is < 1000 nM.

For `Cn1nc(C(F)(F)F)cc1Nc1nncn1C1COc2sc(NC(=O)C3CC3)c(C(=O)NCC3CC3)c2C1` (single isomer, unassigned) [Example 501, (3R*)-6-(cyclopropanecarbonylamino)-N-(cyclopropylmethyl)-3-[3-[[2-methyl-5-(trifluoromethyl)pyrazol-3-yl]amino]-1,2,4-triazol-4-yl]-3,4-dihydro-2H-thieno[2,3-b]pyran-5-carboxamide (* or S)], the IC50 is < 1000 nM.

For the compound `Cc1ccc(N2CC[C@H](Nc3nncn3[C@H]3CCc4sc(NC(=O)C5CC5)c(C(=O)NCC5CC5)c4C3)C2)nn1` [Example 240, (5S)-2-cyclopropaneamido-N-(cyclopropylmethyl)-5-(3-{[(35)-1-(6-methylpyridazin-3-yl)pyrrolidin-3-yl]amino}-4H-1,2,4-triazol-4-yl)-4,5,6,7-tetrahydro-1-benzothiophene-3-carboxamide], the IC50 is < 1000 nM.

Regarding `O=C(NCC1CC1)c1c(NC(=O)C2CC2)sc2c1C[C@@H](n1cnnc1N[C@H]1CCN(c3cnccn3)C1)CC2` [Example 241, (5S)-2-(cyclopropanecarbonylamino)-N-(cyclopropylmethyl)-5-[3-[[(3S)-1-pyrazin-2-ylpyrrolidin-3-yl]amino]-1,2,4-triazol-4-yl]-4,5,6,7-tetrahydrobenzothiophene-3-carboxamide], the IC50 is < 1000 nM.

As to `O=C1NCc2c(Nc3nncn3[C@H]3CCc4sc(NC(=O)C5CC5)c(C(=O)NCC5CC5)c4C3)cccc21` [Example 244, (5S)-2-cyclopropaneamido-N-(cyclopropylmethyl)-5-{3-[(1-oxo-2,3-dihydro-1H-isoindol-4-yl)amino]-4H-1,2,4-triazol-4-yl}-4,5,6,7-tetrahydro-1-benzothiophene-3-carboxamide], the IC50 is < 1000 nM.

As to `O=C(NCC1CC1)c1c(NC(=O)C2CC2)sc2c1C[C@@H](n1cnnc1N[C@H]1CCN(c3ccc(F)nn3)C1)CC2` [Example 245, (5S)-2-(cyclopropanecarbonylamino)-N-(cyclopropylmethyl)-5-[3-[[(3S)-1-(6-fluoropyridazin-3-yl)pyrrolidin-3-yl]amino]-1,2,4-triazol-4-yl]-4,5,6,7-tetrahydrobenzothiophene-3-carboxamide], the 50% inhibitory concentration (IC50) is < 1000 nM.

For `O=C(NCC1CC1)c1c(NC(=O)C2CC2)sc2c1C[C@@H](n1cnnc1N[C@H]1CCN(c3ncccn3)C1)CC2` [Example 246], the IC50 was < 1000 nM.

With `COCCOC(=O)c1ncn([C@H]2CCc3sc(NC(=O)C4CC4)c(C(=O)NCC4CC4)c3C2)c1N` [Example 247, 2-methoxyethyl 5-amino-1-[(5S)-2-(cyclopropanecarbonylamino)-3-(cyclopropylmethylcarbamoyl)-4,5,6,7-tetrahydro-1-benzothiophen-5-yl]imidazole-4-carboxylate], the IC50 is < 1000 nM.

As to `Nc1c(C(=O)OCCN2CCOCC2)ncn1[C@H]1CCc2sc(NC(=O)C3CC3)c(C(=O)NCC3CC3)c2C1` [Example 248, 2-morpholin-4-ylethyl 5-amino-1-[(5S)-2-(cyclopropanecarbonylamino)-3-(cyclopropylmethylcarbamoyl)-4,5,6,7-tetrahydro-1-benzothiophen-5-yl]imidazole-4-carboxylate], the IC50 was < 1000 nM.

As to `CSc1cccc(Nc2nncn2[C@H]2CCc3sc(NC(=O)C4CC4)c(C(=O)NCC4CC4)c3C2)c1` [Example 249, (5S)-2-(cyclopropanecarbonylamino)-N-(cyclopropylmethyl)-5-[3-(3-methylsulfanylanilino)-1,2,4-triazol-4-yl]-4,5,6,7-tetrahydrobenzothiophene-3-carboxamide], the half-inhibitory concentration (IC50) is < 1000 nM.

For the compound `CS(=O)(=O)c1cccc(Nc2nncn2[C@H]2CCc3sc(NC(=O)C4CC4)c(C(=O)NCC4CC4)c3C2)c1` [Example 250, (5S)-2-(cyclopropanecarbonylamino)-N-(cyclopropylmethyl)-5-[3-(3-methylsulfonylanilino)-1,2,4-triazol-4-yl]-4,5,6,7-tetrahydrobenzothiophene-3-carboxamide], the IC50 was < 1000 nM.

With `C[S+]([O-])c1cccc(Nc2nncn2[C@H]2CCc3sc(NC(=O)C4CC4)c(C(=O)NCC4CC4)c3C2)c1` (stereo partly drawn) [Example 251, (5S)-2-(cyclopropanecarbonylamino)-N-(cyclopropylmethyl)-5-[3-(3-methylsulfinylanilino)-1,2,4-triazol-4-yl]-4,5,6,7-tetrahydrobenzothiophene-3-carboxamide], the IC50 was < 1000 nM.

In the case of `C[S+]([O-])c1cccc(Nc2nncn2[C@H]2CCc3sc(NC(=O)C4CC45CC5)c(C(=O)NCC4CC4)c3C2)n1` (stereo partly drawn) [Example 255, (5S)—N-(cyclopropylmethyl)-5-[3-[(6-methylsulfinyl-2-pyridyl)amino]-1,2,4-triazo-4-yl]-2-(spiro[2.2]pentane-2-carbonylamino)-4,5,6,7-tetrahydrobenzothiophene-3-carboxamide], the IC50 is < 1000 nM.

As for `COc1ccc2c(c1)Nc1c(ncn1[C@H]1CCc3sc(NC(=O)C4CC4)c(C(=O)NCC4CC4)c3C1)C(=O)N2` [Example 257, (5S)-2-(cyclopropanecarbonylamino)-N-(cyclopropylmethyl)-5-(8-methoxy-4-oxo-5,10-dihydroimidazo[4,5-c][1,5]benzodiazepin-1-yl)-4,5,6,7-tetrahydrobenzothiophene-3-carboxamide], the IC50 is < 1000 nM.

In the case of `COc1ccc2c(c1)Nc1c(ncn1[C@H]1CCc3sc(NC(=O)C4CC4)c(C(=O)NCC4CC4)c3C1)C(=O)N2C` [Example 258, (5S)-2-(cyclopropanecarbonylamino)-N-(cyclopropylmethyl)-5-(8-methoxy-5-methyl-4-oxo-10H-imidazo[4,5-c][1,5]benzodiazepin-1-yl)-4,5,6,7-tetrahydrobenzothiophene-3-carboxamide], the IC50 was < 1000 nM.

Take `Nc1c(C(=O)N2CC[C@@H](O)C2)ncn1[C@H]1CCc2sc(NC(=O)C3CC3)c(C(=O)NCC3CC3)c2C1` [Example 260, (5S)-5-[5-amino-4-[(3R)-3-hydroxypyrrolidine-1-carbonyl]imidazol-1-yl]-2-(cyclopropanecarbonylamino)-N-(cyclopropylmethyl)-4,5,6,7-tetrahydrobenzothiophene-3-carboxamide]: the IC50 was < 1000 nM.

For `C[C@H]1CCCN1C(=O)c1ncn([C@H]2CCc3sc(NC(=O)C4CC4)c(C(=O)NCC4CC4)c3C2)c1N` [Example 261, (5S)-5-[5-amino-4-[(2S)-2-methylpyrrolidine-1-carbonyl]imidazol-1-yl]-2-(cyclopropanecarbonylamino)-N-(cyclopropylmethyl)-4,5,6,7-tetrahydrobenzothiophene-3-carboxamide], the IC50 was < 1000 nM.

As to `CCOC(=O)c1ncn([C@H]2CCc3sc(NC(=O)C4CC4)c(C(=O)NCC4CC4)c3C2)c1Nc1c([N+](=O)[O-])c(C)nn1C` [Example 262, Ethyl 1-[(5S)-2-(cyclopropanecarbonylamino)-3-(cyclopropylmethylcarbamoyl)-4,5,6,7-tetrahydrobenzothiophen-5-yl]-5-[(2,5-dimethyl-4-nitro-pyrazol-3-yl)amino]imidazole-4-carboxylate], the IC50 was < 1000 nM.

As to `Cc1c(Nc2nncn2[C@H]2CCc3sc(NC(=O)C4CC4)c(C(=O)NCC4CC4)c3C2)cccc1[S+](C)[O-]` (stereo partly drawn) [Example 263, (5S)-2-(cyclopropanecarbonylamino)-N-(cyclopropylmethyl)-5-[3-(2-methyl-3-methylsulfinyl-anilino)-1,2,4-triazol-4-yl]-4,5,6,7-tetrahydrobenzothiophene-3-carboxamide], the IC50 was < 1000 nM.

By IC50 is commonly meant the concentration needed to halve the response being measured.
